In PubChem BioAssay (NCI):
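In this assay, cells in 96-well plates receive the compound at five concentrations for 48 hours. Endpoints are linearly interpolated between the surrounding concentrations. GI50: concentration for 50% inhibition of growth. TGI marks complete inhibition of growth.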

Legend:
Test in all cases: growth of human tumour cells (NCI), 48 h
SF-539 CNS = test system: SF-539 CNS
HT29 colon = test system: HT29 colon
MCF7 breast = test system: MCF7 breast
DU-145 prostate = test system: DU-145 prostate
SN12C renal = test system: SN12C renal
OVCAR-4 ovarian = test system: OVCAR-4 ovarian
RPMI-8226 leukemia = test system: RPMI-8226 leukemia
HOP-62 NSCLC = test system: HOP-62 NSCLC
SNB-75 CNS = test system: SNB-75 CNS
SF-295 CNS = test system: SF-295 CNS

Row | SMILES | GI50 (SF-539 CNS) [µM] | TGI (SF-539 CNS) [µM] | GI50 (HT29 colon) [µM] | TGI (HT29 colon) [µM] | GI50 (MCF7 breast) [µM] | TGI (MCF7 breast) [µM] | GI50 (DU-145 prostate) [µM] | TGI (DU-145 prostate) [µM] | GI50 (SN12C renal) [µM] | TGI (SN12C renal) [µM] | GI50 (OVCAR-4 ovarian) [µM] | TGI (OVCAR-4 ovarian) [µM] | GI50 (RPMI-8226 leukemia) [µM] | TGI (RPMI-8226 leukemia) [µM] | GI50 (HOP-62 NSCLC) [µM] | TGI (HOP-62 NSCLC) [µM] | GI50 (SNB-75 CNS) [µM] | TGI (SNB-75 CNS) [µM] | GI50 (SF-295 CNS) [µM] | TGI (SF-295 CNS) [µM]
1 | O=C1CCCCN1CCCCC#Cc1ccccc1C#Cc1ccc([N+](=O)[O-])cc1 | 3.13 | 12.7 | 3.74 | 59.6 | 1.38 | 3.65 | 17.5 | 36 | 17.1 | 37.3 | 4.38 | 22.5 | 0.408 | 3.39 | 8.01 | 22.5 | 2.21 | 28.9 | – | –
2 | COc1ccc(/C(COc2c(-c3ccccc3)oc3ccccc3c2=O)=N\O)cc1 | 13.5 | 27.9 | 20.7 | > 50 | 10.8 | 29.5 | 22 | > 50 | 10.6 | 33.9 | 37.1 | > 50 | 21.5 | > 50 | 49.6 | > 50 | 22.2 | > 50 | – | –
3 | O=C(O)CNS(=O)(=O)c1ccc(NCc2ccccc2)cc1 | – | > 100 | – | > 100 | – | – | – | – | – | > 100 | – | > 100 | – | > 100 | – | > 100 | – | > 100 | – | –
4 | CCOC(=O)[C]1([Bi]([CH3])[CH3])N=NC(C(=O)OC)=C1C(=O)OC (stereo unspecified) | 18.1 | 32.3 | 19.3 | 39.4 | – | – | – | – | 19.2 | 35.8 | 42.4 | > 100 | 21.5 | 67.2 | > 100 | > 100 | 15.6 | 29.9 | > 100 | > 100
5 | O=C(/N=N/C(=O)OCc1ccccc1)OCc1ccccc1 | – | > 100 | – | > 100 | – | – | – | – | – | > 100 | – | > 100 | – | > 100 | – | > 100 | – | > 100 | – | > 100
6 | Brc1cccc(C=NC23CC4CC(CC(C4)C2)C3)c1 | – | > 100 | – | > 100 | – | – | – | – | – | > 100 | – | > 100 | – | > 100 | – | > 100 | – | > 100 | – | > 100
7 | NC(CCC(=O)NC(CSSCCCCS(=O)O)C(=O)NCC(=O)O)C(=O)O (stereo unspecified) | – | > 100 | – | > 100 | – | – | – | – | – | > 100 | – | > 100 | – | – | – | > 100 | – | > 100 | – | > 100
8 | CCC[CH2][Sn]1([CH2]CCC)[O]Cc2nc(C)ccc2[O]1 | 12.1 | 24.5 | 12.8 | 29.1 | – | – | – | – | 11.3 | 23.3 | 3.95 | 17.6 | 1.99 | 6.87 | 10.1 | 22.5 | 4.63 | 18.8 | 2.02 | 3.69
9 | CC[C@]1(O)C[C@@H]2CN(CCc3c([nH]c4ccccc34)[C@@](C(=O)OC)(c3cc4c(cc3OC)N(C)[C@H]3[C@@](O)(C(=O)OC)[C@H](OC(C)=O)[C@]5(CC)C=CCN6CC[C@]43[C@@H]65)C2)C1 | < 0.01 | < 0.01 | < 0.01 | 18.9 | < 0.01 | 32.3 | – | – | < 0.01 | 35.7 | – | > 100 | < 0.01 | 8.54 | < 0.01 | 24.1 | < 0.01 | 0.592 | < 0.01 | 0.991
10 | COc1ccc(NC2=CC(=O)C(=O)c3ccccc32)nn1 | – | 2.2 | – | 3.54 | – | 2.14 | – | 3.19 | – | 3.52 | – | 2.79 | – | 5.34 | – | – | – | – | – | 2.15
11 | O=C(/C=C/c1c(O)ccc2ccccc12)c1cccc(O)c1 | – | > 100 | – | > 100 | – | – | – | – | – | > 100 | – | > 100 | – | > 100 | – | > 100 | – | > 100 | – | > 100
12 | N#Cc1cc([N+](=O)[O-])ccc1NC(=O)C(=O)Nc1n[nH]c(N)n1 | – | > 100 | – | > 100 | – | – | – | – | – | > 100 | – | > 100 | – | > 100 | – | > 100 | – | > 100 | – | –
13 | COc1ccc(-c2cnnc3c(-c4cccc(C(F)(F)F)c4)cnn23)cc1 | 3 | > 100 | – | – | > 100 | > 100 | 3.97 | > 100 | 3.07 | > 100 | – | – | 2.72 | > 100 | 2.72 | 13.1 | 1.51 | 4.6 | – | –
14 | Oc1ccc(CN2CCC(N3CCCCC3)CC2)c2cccnc12 | – | – | 93.7 | > 100 | 21.5 | > 100 | 6.64 | > 100 | 8.18 | > 100 | 24.2 | > 100 | 6.33 | > 100 | 6.25 | > 100 | 2.85 | > 100 | 68.3 | > 100
15 | C=C1C(=O)O[C@H]2[C@H]1CC/C(Cn1cc(-c3ccc(OC)cc3)nn1)=C\CC[C@@]1(C)O[C@@H]21 | 0.346 | 1.49 | 1.23 | 2.86 | – | – | 1.11 | 2.32 | 1.96 | 5.27 | 1.52 | 3.33 | 1.87 | 5.15 | 10.5 | 23.1 | 1.47 | 3.28 | 11 | 23.7
16 | CC(=O)CNC(=O)OC(C)(C)C | – | > 100 | – | > 100 | – | – | – | – | – | > 100 | – | > 100 | – | – | – | > 100 | – | > 100 | – | > 100
17 | CC(C)C(=O)NC(=S)Nc1ccc([N+](=O)[O-])cc1C#N | – | > 100 | – | > 100 | – | – | – | – | – | > 100 | – | > 100 | – | > 100 | – | > 100 | – | > 100 | – | > 100
18 | O/N=C/C1c2ccccc2-c2ccccc21 | – | 31 | – | 28.6 | – | 33.7 | – | 45.9 | – | 31.9 | – | – | – | 52.8 | – | 34.2 | – | – | – | 53.4
